# Measured values reported in PMC5007443, “TNIK inhibition abrogates colorectal cancer stemness” (Nature Communications, 2016).
# Columns and labels:
# [1] = target: IRAK4 (Homo sapiens, UniProt Q9NWZ3); assay: Kinase selectivity profiling, Interleukin 1 receptor-associated kinase 4; assay type: biochemical; conditions: read-out: Percentage inhibition of IRAK4
# Method: (§1) The selectivity of compounds against a panel of 50 human protein kinases was assessed using a non-radiometric assay.
# [2] = test system: HCT116 cells; assay: Drug sensitivity assay, ATP production, 2D culture; assay type: cell-based; conditions: Homo sapiens, HCT-116; HCT116, 2D culture, 72 h; read-out: IC50, ATP production (cell growth)
# Method: (§2) Cells were seeded at a density of 3,000 cells per well in 96-well plates. Twenty-four hours after seeding, the cells were exposed to serially diluted compounds (0.003, 0.01, 0.03, 0.1, 0.3, 1, 3 and 10 μM) and incubated for 72 h (Fig. 3a). Patient-derived colorectal cancer spheroids were dissociated into single cells with Accutase (Nacalai Tesque) and seeded at a density of 3,000 cells per well into Ultra-Low attachment multiwall 96-well plates (Corning; Fig. 6d). ATP was measured with a CellTiter-Glo Luminescent Cell Viability Assay kit (Promega). Experiments were performed in triplicate and repeated at least two times.
# [3] = target: CaMK4 (Homo sapiens, UniProt Q16566); assay: Kinase selectivity profiling, Calcium/calmodulin-dependent protein kinase IV; assay type: biochemical; conditions: read-out: Percentage inhibition of CaMK4
# Method: as §1
# [4] = target: HGK (Homo sapiens, UniProt O95819); assay: Kinase selectivity profiling, Hematopoietic progenitor kinase; assay type: biochemical; conditions: 0.1 µM inhibitor, ATP at Km; read-out: Percentage inhibition of HGK
# Chain of HGK (O95819 whole entry): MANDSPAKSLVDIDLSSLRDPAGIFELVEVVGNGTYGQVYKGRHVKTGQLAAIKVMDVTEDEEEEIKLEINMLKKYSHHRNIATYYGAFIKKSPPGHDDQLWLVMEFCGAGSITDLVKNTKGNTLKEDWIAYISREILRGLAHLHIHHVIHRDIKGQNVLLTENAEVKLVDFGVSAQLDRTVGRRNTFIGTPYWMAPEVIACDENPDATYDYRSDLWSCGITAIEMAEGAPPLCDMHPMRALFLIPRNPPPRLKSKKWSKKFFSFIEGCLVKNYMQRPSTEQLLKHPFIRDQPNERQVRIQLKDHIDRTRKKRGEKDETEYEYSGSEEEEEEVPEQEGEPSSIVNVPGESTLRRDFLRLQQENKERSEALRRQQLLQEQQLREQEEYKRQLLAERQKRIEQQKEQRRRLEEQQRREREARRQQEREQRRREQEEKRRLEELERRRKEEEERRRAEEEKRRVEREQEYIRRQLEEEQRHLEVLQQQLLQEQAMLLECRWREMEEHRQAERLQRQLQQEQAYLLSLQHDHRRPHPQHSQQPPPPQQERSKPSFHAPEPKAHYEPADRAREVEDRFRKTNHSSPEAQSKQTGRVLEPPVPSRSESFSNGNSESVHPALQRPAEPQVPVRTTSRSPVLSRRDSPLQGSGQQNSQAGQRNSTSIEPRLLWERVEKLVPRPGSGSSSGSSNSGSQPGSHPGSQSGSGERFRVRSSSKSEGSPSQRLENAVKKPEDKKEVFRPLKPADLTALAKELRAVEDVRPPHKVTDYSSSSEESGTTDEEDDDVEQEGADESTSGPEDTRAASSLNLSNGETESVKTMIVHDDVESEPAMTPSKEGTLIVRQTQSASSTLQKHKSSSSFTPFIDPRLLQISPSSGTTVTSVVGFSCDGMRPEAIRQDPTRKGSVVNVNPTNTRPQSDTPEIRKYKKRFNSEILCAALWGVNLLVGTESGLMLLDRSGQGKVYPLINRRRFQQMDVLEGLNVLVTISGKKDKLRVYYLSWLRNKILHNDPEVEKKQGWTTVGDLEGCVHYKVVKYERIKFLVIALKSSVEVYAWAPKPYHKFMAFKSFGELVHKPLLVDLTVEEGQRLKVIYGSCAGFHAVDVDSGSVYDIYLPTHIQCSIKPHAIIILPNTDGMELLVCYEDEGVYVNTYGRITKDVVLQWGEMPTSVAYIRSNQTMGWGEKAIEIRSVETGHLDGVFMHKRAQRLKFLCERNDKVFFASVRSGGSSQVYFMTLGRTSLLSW
# Method: as §1
# [5] = test system: patient-derived colorectal cancer spheroids #6; assay: Limiting dilution analysis of sphere reformation, spheroids #6; assay type: cell-based, human; conditions: spheroids #6, 3-day Treatment
# Method: Spheroids were gently dissociated into single cells with the use of StemPro Accutase (Thermo Fisher Scientific), and 1,000, 100, 10 or 1 viable cells were seeded into each well of a 96-well U-bottom PrimeSurface plate (Supplementary Figs 10b and 12). Experiments were performed in triplicate and repeated at least two times.
# [6] = target: JNK2 (Homo sapiens, UniProt P45984); assay: Kinase selectivity profiling, c-Jun kinase 2; assay type: biochemical; conditions: read-out: Percentage inhibition of JNK2
# Method: as §1
# [7] = target: AurA (Homo sapiens, UniProt O14965); assay: Kinase selectivity profiling, Aurora kinase A; assay type: biochemical; conditions: read-out: Percentage inhibition of AurA
# Chain of AurA (O14965 whole entry): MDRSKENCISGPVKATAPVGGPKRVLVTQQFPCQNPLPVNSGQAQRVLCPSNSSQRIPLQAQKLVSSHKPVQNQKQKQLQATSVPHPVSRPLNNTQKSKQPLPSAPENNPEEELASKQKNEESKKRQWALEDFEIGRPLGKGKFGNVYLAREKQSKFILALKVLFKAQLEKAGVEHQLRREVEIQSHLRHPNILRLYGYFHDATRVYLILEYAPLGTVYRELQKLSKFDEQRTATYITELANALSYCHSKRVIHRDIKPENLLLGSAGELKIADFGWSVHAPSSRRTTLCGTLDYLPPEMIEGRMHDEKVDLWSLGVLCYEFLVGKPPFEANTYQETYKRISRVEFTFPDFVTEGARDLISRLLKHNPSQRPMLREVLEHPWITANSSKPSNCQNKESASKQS
# Method: as §1
# [8] = target: FLT3 (Homo sapiens, UniProt P36888); assay: Kinase selectivity profiling, Fms-related tyrosine kinase 3; assay type: biochemical; conditions: 0.1 µM inhibitor, ATP at Km; read-out: Percentage inhibition of FLT3
# Method: as §1
# [9] = test system: patient-derived colorectal cancer spheroids #6; assay: ATP production of patient-derived spheroid #6; assay type: cell-based; conditions: Homo sapiens, 72 h; spheroid #6, 3 days
# Method: as §2
# [10] = target: LCK (Homo sapiens, UniProt P06239); assay: Kinase selectivity profiling, Lymphocyte-specific protein tyrosine kinase; assay type: biochemical; conditions: read-out: Percentage inhibition of LCK
# Chain of LCK (P06239 whole entry): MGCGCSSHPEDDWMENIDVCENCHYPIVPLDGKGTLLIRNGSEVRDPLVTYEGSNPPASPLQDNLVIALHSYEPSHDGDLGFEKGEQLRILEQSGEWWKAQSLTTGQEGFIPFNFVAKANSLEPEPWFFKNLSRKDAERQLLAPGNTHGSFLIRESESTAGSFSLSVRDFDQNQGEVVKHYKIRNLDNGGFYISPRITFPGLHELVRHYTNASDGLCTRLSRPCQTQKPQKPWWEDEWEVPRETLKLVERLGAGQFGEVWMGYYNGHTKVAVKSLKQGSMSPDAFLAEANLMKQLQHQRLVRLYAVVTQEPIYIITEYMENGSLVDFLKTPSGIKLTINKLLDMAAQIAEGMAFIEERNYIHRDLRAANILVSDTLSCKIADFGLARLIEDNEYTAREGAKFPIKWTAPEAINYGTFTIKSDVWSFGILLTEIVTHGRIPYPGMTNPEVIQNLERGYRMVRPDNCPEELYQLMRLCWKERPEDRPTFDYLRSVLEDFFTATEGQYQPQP
# Method: as §1
# [11] = target: CHK1 (Homo sapiens, UniProt O14757); assay: Kinase selectivity profiling, Checkpoint kinase 1; assay type: biochemical; conditions: read-out: Percentage inhibition of CHK1
# Chain of CHK1 (O14757 whole entry): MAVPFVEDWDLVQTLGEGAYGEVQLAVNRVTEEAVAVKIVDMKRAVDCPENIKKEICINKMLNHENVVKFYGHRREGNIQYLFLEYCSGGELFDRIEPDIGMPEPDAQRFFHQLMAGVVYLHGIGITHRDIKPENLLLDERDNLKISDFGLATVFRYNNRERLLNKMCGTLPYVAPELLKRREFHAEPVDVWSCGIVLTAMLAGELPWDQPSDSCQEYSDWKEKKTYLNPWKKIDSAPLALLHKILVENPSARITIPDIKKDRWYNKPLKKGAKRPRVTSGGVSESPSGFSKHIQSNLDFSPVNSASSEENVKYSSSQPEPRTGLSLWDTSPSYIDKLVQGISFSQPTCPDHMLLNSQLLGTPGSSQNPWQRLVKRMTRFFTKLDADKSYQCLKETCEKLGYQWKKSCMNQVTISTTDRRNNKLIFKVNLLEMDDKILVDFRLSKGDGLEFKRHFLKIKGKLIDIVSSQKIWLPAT
# Method: as §1
# [12] = target: NEK2 (Homo sapiens, UniProt P51955); assay: Kinase selectivity profiling, Never in mitosis gene A-related kinase 2; assay type: biochemical; conditions: read-out: Percentage inhibition of NEK2
# Method: as §1
# [13] = target: FGFR1 (Homo sapiens, UniProt P11362); assay: Kinase selectivity profiling, Fibroblast growth factor receptor 1; assay type: biochemical; conditions: read-out: Percentage inhibition of FGFR1
# Chain of FGFR1 (P11362 22-822): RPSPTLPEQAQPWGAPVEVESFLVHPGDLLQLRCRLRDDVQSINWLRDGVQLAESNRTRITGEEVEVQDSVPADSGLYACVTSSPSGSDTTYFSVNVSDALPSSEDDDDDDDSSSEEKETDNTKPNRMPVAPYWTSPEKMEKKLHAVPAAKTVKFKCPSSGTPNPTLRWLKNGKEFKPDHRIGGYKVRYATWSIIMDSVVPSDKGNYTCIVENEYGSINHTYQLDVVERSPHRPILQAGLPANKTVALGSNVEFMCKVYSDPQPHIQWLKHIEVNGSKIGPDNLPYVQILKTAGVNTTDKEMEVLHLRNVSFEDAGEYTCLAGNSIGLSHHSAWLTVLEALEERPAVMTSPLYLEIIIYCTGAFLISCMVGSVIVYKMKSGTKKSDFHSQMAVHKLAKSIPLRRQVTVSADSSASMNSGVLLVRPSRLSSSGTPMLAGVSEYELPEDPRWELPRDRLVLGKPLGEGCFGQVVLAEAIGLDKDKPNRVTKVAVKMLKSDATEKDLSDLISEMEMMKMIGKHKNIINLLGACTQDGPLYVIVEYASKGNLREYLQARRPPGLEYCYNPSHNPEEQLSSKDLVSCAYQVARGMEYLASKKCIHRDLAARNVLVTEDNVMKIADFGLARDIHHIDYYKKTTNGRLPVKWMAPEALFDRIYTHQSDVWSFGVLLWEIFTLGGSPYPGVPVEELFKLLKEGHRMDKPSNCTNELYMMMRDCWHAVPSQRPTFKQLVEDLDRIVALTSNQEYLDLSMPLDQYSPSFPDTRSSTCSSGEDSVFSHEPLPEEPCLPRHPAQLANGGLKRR
# Method: as §1
# [14] = target: SYK (Homo sapiens, UniProt P43405); assay: Kinase selectivity profiling, Spleen tyrosine kinase; assay type: biochemical; conditions: read-out: Percentage inhibition of SYK
# Method: as §1
# [15] = target: EPHA2 (Homo sapiens, UniProt P29317); assay: Kinase selectivity profiling, EPH receptor A2; assay type: biochemical; conditions: read-out: Percentage inhibition of EPHA2
# Method: as §1
# [16] = target: GSK3β (Homo sapiens, UniProt P49841); assay: Kinase selectivity profiling, Glycogen synthase kinase 3β; assay type: biochemical; conditions: read-out: Percentage inhibition of GSK3β
# Method: as §1
# [17] = target: SGK (Homo sapiens, UniProt O00141); assay: Kinase selectivity profiling, Serum/glucocorticoid regulated kinase; assay type: biochemical; conditions: read-out: Percentage inhibition of SGK
# Method: as §1
# [18] = target: EPHA4 (Homo sapiens, UniProt P54764); assay: Kinase selectivity profiling, EPH receptor A4; assay type: biochemical; conditions: read-out: Percentage inhibition of EPHA4
# Method: as §1
# [19] = target: CSK (Homo sapiens, UniProt P41240); assay: Kinase selectivity profiling, c-Src tyrosine kinase; assay type: biochemical; conditions: read-out: Percentage inhibition of CSK
# Method: as §1
# [20] = target: SRC (Homo sapiens, UniProt P12931); assay: Kinase selectivity profiling, v-Src sarcoma viral oncogene homolog; assay type: biochemical; conditions: read-out: Percentage inhibition of SRC
# Method: as §1
# [21] = test system: HCT116 cells; assay: Soft-agar colony-formation assay; assay type: cell-based; conditions: Homo sapiens, HCT-116, 336 h; HCT116, 14 days
# Method: One milliliter of 0.33% agar (Lonza) in culture medium containing 1.5 × 10^4 cells was plated onto 1 ml of solidified base agar (0.5%) in each well of six-well clusters. The top agar layer was covered with culture medium containing serially diluted compounds. The medium was replaced every three days. Cell number was determined colorimetrically at 450–650 nm using the Cell Count Reagent SF (Nacalai Tesque). IC50 values were obtained by fitting a four-parameter dose–response curve to normalized data using GraphPad Prism version 5 (GraphPad software; Fig. 3b). Experiments were performed in triplicate and repeated at least two times.
# [22] = target: DAPK1 (Homo sapiens, UniProt P53355); assay: Kinase selectivity profiling, Death-associated protein kinase 1; assay type: biochemical; conditions: read-out: Percentage inhibition of DAPK1
# Method: as §1
# [23] = target: p70S6K (Homo sapiens, UniProt P23443); assay: Kinase selectivity profiling, Ribosomal protein S6 kinase; assay type: biochemical; conditions: read-out: Percentage inhibition of p70S6K
# Chain of p70S6K (P23443 whole entry): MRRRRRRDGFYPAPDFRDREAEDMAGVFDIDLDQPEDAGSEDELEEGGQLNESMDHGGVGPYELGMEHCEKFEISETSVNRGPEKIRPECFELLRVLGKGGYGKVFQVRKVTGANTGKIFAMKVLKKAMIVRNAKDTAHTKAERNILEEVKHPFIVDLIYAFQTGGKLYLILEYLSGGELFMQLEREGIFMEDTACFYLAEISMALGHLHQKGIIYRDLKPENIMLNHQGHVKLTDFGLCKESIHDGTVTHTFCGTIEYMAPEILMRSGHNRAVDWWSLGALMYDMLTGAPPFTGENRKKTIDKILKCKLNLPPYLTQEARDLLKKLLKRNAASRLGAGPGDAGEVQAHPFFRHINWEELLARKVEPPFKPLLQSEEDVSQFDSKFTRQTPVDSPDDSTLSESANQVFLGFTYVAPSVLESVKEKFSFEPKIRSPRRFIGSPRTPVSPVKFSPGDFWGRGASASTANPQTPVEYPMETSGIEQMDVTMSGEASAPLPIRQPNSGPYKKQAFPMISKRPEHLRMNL
# Method: as §1
# [24] = target: CK1ε (Homo sapiens, UniProt P49674); assay: Kinase selectivity profiling, Casein kinase 1ε; assay type: biochemical; conditions: read-out: Percentage inhibition of CK1ε
# Chain of CK1ε (P49674 whole entry): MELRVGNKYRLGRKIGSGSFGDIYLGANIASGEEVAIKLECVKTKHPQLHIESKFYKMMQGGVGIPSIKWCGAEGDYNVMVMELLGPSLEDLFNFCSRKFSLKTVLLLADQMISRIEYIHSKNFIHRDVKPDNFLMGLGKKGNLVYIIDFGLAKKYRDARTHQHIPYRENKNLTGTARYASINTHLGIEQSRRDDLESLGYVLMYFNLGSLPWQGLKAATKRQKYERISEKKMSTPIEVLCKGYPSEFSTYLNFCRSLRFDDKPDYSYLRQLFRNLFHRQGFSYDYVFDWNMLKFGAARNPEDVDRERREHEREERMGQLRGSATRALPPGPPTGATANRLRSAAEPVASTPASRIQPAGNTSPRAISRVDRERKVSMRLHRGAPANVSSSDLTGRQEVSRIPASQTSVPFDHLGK
# Method: as §1
# [25] = target: PBK (Homo sapiens, UniProt Q96KB5); assay: Kinase selectivity profiling, PDZ binding kinase; assay type: biochemical; conditions: read-out: Percentage inhibition of PBK
# Chain of PBK (Q96KB5 whole entry): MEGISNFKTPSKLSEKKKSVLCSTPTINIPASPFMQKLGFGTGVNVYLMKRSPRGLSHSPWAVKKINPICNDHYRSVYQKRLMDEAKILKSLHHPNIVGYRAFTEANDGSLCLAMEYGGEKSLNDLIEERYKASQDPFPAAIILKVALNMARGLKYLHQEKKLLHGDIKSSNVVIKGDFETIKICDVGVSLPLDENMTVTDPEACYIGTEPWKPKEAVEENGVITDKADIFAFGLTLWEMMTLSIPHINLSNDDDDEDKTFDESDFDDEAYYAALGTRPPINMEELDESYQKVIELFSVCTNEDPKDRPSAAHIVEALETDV
# Method: as §1
# [26] = target: PAK2 (Homo sapiens, UniProt Q13177); assay: Kinase selectivity profiling, P21 protein (Cdc42/Rac)-activated kinase 2; assay type: biochemical; conditions: read-out: Percentage inhibition of PAK2
# Method: as §1
# [27] = target: Erk2 (Homo sapiens, UniProt P28482); assay: Kinase selectivity profiling, Mitogen-activated protein kinase 1; assay type: biochemical; conditions: read-out: Percentage inhibition of Erk2
# Method: as §1
compound,measurement,setting,value
O[C@H]1CC[C@H](Oc2cccc3cnc(Nc4ccc5nc[nH]c5c4)nc23)CC1 [NCB-0970],inhibition at 0.1 µM,[1],6.3%
same,IC50,[2],2400 nM
same,inhibition at 0.1 µM,[3],-4.1%
same,inhibition at 0.1 µM,[4],21.8%
same,Sphere-containing wells/total wells,"[5]; 0.1 μM, 1 cell per well",8/96
same,Sphere-containing wells/total wells,"[5]; 0.1 μM, 10 cells per well",83/96
same,Sphere-containing wells/total wells,"[5]; 0.1 μM, 100 cells per well",96/96
same,Sphere-containing wells/total wells,"[5]; 0.1 μM, 1000 cells per well",96/96
same,Sphere-containing wells/total wells,"[5]; 0.3 μM, 1 cell per well",10/96
same,Sphere-containing wells/total wells,"[5]; 0.3 μM, 10 cells per well",87/96
same,Sphere-containing wells/total wells,"[5]; 0.3 μM, 100 cells per well",96/96
same,Sphere-containing wells/total wells,"[5]; 0.3 μM, 1000 cells per well",96/96
same,"Sphere-initiating cell frequency, Estimate",[5]; 1.0 μM,1/15
same,Sphere-containing wells/total wells,"[5]; 1.0 μM, 1 cell per well",1/96
same,Sphere-containing wells/total wells,"[5]; 1.0 μM, 10 cells per well",50/96
same,Sphere-containing wells/total wells,"[5]; 1.0 μM, 100 cells per well",96/96
same,Sphere-containing wells/total wells,"[5]; 1.0 μM, 1000 cells per well",96/96
same,inhibition at 0.1 µM,[6],-3%
same,inhibition at 0.1 µM,[7],36.5%
same,inhibition at 0.1 µM,[8],102%
same,IC50,[9],> 3000 nM
same,inhibition at 0.1 µM,[10],6.8%
same,inhibition at 0.1 µM,[11],9%
same,inhibition at 0.1 µM,[12],-4.5%
same,inhibition at 0.1 µM,[13],14.4%
same,inhibition at 0.1 µM,[14],14.2%
same,inhibition at 0.1 µM,[15],8.7%
same,inhibition at 0.1 µM,[16],13.5%
same,inhibition at 0.1 µM,[17],6.6%
same,inhibition at 0.1 µM,[18],2.3%
same,inhibition at 0.1 µM,[19],-4%
same,inhibition at 0.1 µM,[20],14.4%
same,IC50,[21],3850 nM
same,inhibition at 0.1 µM,[22],4.7%
same,inhibition at 0.1 µM,[23],11.4%
same,inhibition at 0.1 µM,[24],-1.6%
same,inhibition at 0.1 µM,[25],-5.8%
same,inhibition at 0.1 µM,[26],-17.4%
same,inhibition at 0.1 µM,[27],-2.1%
